Source: ChEMBL document CHEMBL5230084, “Indole-based derivatives as potential antibacterial activity against methicillin-resistance Staphylococcus aureus (MRSA)” (Eur J Med Chem, 2020)
Values after ≈ are worked out from the molar mass of the structure shown. Blank lines part the entries; values can stand above or below the compound they belong to.

Key:
Staphylococcus aureus [1] = test: Antibacterial activity against Staphylococcus aureus ATCC 25923 assessed as inhibition of bacterial growth by agar well diffusion method; format: functional
Staphylococcus aureus [2] = test: Antibacterial activity against Staphylococcus aureus assessed as inhibition of bacterial growth; format: functional
Staphylococcus aureus [3] = test: Antibacterial activity against methicillin-resistant Staphylococcus aureus; format: functional
[4] = Cytotoxicity against human HKC-8 cells assessed as inhibition of cell growth; format: toxicity, cell-based
[5] = Cytotoxicity against human HepG2 cells assessed as inhibition of cell growth; format: toxicity, cell-based
[6] = Cytotoxicity against human MKN-28 cells assessed as inhibition of cell growth; format: toxicity, cell-based
Staphylococcus aureus [7] = test: Antibacterial activity methicillin-resistant Staphylococcus aureus MTCC-96 assessed as inhibition of bacterial growth incubated for 16 to 24 hrs by broth microdilution assay; format: functional; details: time 16-24 hrs
Staphylococcus aureus [8] = test: Antibacterial activity methicillin-resistant Staphylococcus aureus ST-3151 assessed as inhibition of bacterial growth incubated for 16 to 24 hrs by broth microdilution assay; format: functional; details: time 16-24 hrs
Staphylococcus aureus [9] = test: Antibacterial activity methicillin-resistant Staphylococcus aureus ST-10342 assessed as inhibition of bacterial growth incubated for 16 to 24 hrs by broth microdilution assay; format: functional; details: time 16-24 hrs
Staphylococcus aureus [10] = test: Antibacterial activity methicillin-resistant Staphylococcus aureus P-6642 assessed as inhibition of bacterial growth incubated for 16 to 24 hrs by broth microdilution assay; format: functional; details: time 16-24 hrs
Staphylococcus aureus [11] = test: Antibacterial activity methicillin-resistant Staphylococcus aureus P-8029 assessed as inhibition of bacterial growth incubated for 16 to 24 hrs by broth microdilution assay; format: functional; details: time 16-24 hrs
Staphylococcus aureus [12] = test: Antibacterial activity methicillin-resistant Staphylococcus aureus ST-1745 assessed as inhibition of bacterial growth incubated for 16 to 24 hrs by broth microdilution assay; format: functional; details: time 16-24 hrs
Staphylococcus aureus [13] = test: Antibacterial activity methicillin-resistant Staphylococcus aureus ST-2438 assessed as inhibition of bacterial growth incubated for 16 to 24 hrs by broth microdilution assay; format: functional; details: time 16-24 hrs
Staphylococcus aureus [14] = test: Antibacterial activity methicillin-resistant Staphylococcus aureus B-10760 assessed as inhibition of bacterial growth incubated for 16 to 24 hrs by broth microdilution assay; format: functional; details: time 16-24 hrs
Staphylococcus aureus [15] = test: Antibacterial activity methicillin-resistant Staphylococcus aureus ST-2071 assessed as inhibition of bacterial growth incubated for 16 to 24 hrs by broth microdilution assay; format: functional; details: time 16-24 hrs
Staphylococcus aureus [16] = test: Antibacterial activity methicillin-resistant Staphylococcus aureus B-10732 assessed as inhibition of bacterial growth incubated for 16 to 24 hrs by broth microdilution assay; format: functional; details: time 16-24 hrs
Staphylococcus aureus [17] = test: Antibacterial activity methicillin-resistant Staphylococcus aureus ST-5457 assessed as inhibition of bacterial growth incubated for 16 to 24 hrs by broth microdilution assay; format: functional; details: time 16-24 hrs
[18] = Inhibition of methicillin-resistant Staphylococcus aureus pyruvate kinase
Staphylococcus aureus [19] = test: Antibacterial activity against methicillin-resistant Staphylococcus aureus 252 assessed as inhibition of bacterial growth; format: functional
Staphylococcus aureus [20] = test: Antibacterial activity against methicillin-resistant Staphylococcus aureus 12 assessed as inhibition of bacterial growth; format: functional
Staphylococcus aureus [21] = test: Antibacterial activity against methicillin-resistant Staphylococcus aureus 9 assessed as inhibition of bacterial growth; format: functional
Staphylococcus aureus [22] = test: Antibacterial activity against methicillin-resistant Staphylococcus aureus 8 assessed as inhibition of bacterial growth; format: functional
Staphylococcus aureus [23] = test: Antibacterial activity against methicillin-resistant Staphylococcus aureus 4 assessed as inhibition of bacterial growth; format: functional
Staphylococcus aureus [24] = test: Antibacterial activity against methicillin-resistant Staphylococcus aureus 6 assessed as inhibition of bacterial growth; format: functional
Staphylococcus aureus [25] = test: Antibacterial activity against methicillin-resistant Staphylococcus aureus 3 assessed as inhibition of bacterial growth; format: functional
Staphylococcus aureus [26] = test: Antibacterial activity against methicillin-resistant Staphylococcus aureus 11 assessed as inhibition of bacterial growth; format: functional

Structure (SMILES): O=C(O)c1cn(C2CC2)c2cc(N3CCNCC3)c(F)cc2c1=O [CIPROFLOXACIN]
MIC (Staphylococcus aureus [1]): 0.3 µg/mL (≈ 0.905 µM)
MIC (Staphylococcus aureus [2]): 20 µg/mL (≈ 60.4 µM)

Structure (SMILES): Clc1ccc2c(c1)[C@H]1OCO[C@H]1C(c1c[nH]c3ccc(Br)cc13)N2 (some centres undefined)
MIC (Staphylococcus aureus [3]): 0.31 µg/mL (≈ 0.764 µM)

Structure (SMILES): COC(=O)c1ccc(-c2ccc3c(c2)c(/C=N/NC(=N)N)cn3S(=O)(=O)c2ccccc2)cc1
MIC (Staphylococcus aureus [3]): 3.13 µg/mL (≈ 6.58 µM)

Structure (SMILES): COc1ccc(-c2occ3ccc4c(c(Br)cn4C(C)(C)C)c23)cc1
MIC (Staphylococcus aureus [3]): 1.4 µg/mL (≈ 3.51 µM)

Structure (SMILES): COc1ccc2nc3[nH]c4ccccc4c3c(-c3c[nH]c4ccccc34)c2c1
MIC (Staphylococcus aureus [3]): 4 µg/mL (≈ 11 µM)

Structure (SMILES): Oc1ccc(C(c2c[nH]c3ccc(Br)cc23)c2c[nH]c3ccc(Br)cc23)cc1
MIC (Staphylococcus aureus [3]): 1 µg/mL (≈ 2.02 µM)

Structure (SMILES): Cc1ccc(-c2onc3ccc4c(c(Br)cn4C(C)(C)C)c23)cc1
MIC (Staphylococcus aureus [3]): 4.3 µg/mL (≈ 11.2 µM)

Structure (SMILES): Nc1nnc(Cc2c[nH]c3ccccc23)s1
MIC (Staphylococcus aureus [3]): 3.12 µg/mL (≈ 13.6 µM)

Structure (SMILES): CCn1cc(Br)c2c3c(-c4ccc(Cl)cc4)onc3ccc21
MIC (Staphylococcus aureus [3]): 4.3 µg/mL (≈ 11.4 µM)

Structure (SMILES): S=C=NCCn1ccc2ccccc21
IC50 [4]: 2 µg/mL (≈ 9.89 µM)
IC50 [5]: 2 µg/mL (≈ 9.89 µM)
MIC (Staphylococcus aureus [3]): 8 µg/mL (≈ 39.5 µM)
IC50 [6]: 2 µg/mL (≈ 9.89 µM)

Structure (SMILES): O=C(/C=C/c1c[nH]c2ccccc12)c1cccc(OCc2ccccc2)c1
MIC (Staphylococcus aureus [7]): 12.5 µg/mL (≈ 35.4 µM)
MIC (Staphylococcus aureus [8]): 12.5 µg/mL (≈ 35.4 µM)
MIC (Staphylococcus aureus [9]): 12.5 µg/mL (≈ 35.4 µM)
MIC (Staphylococcus aureus [10]): 12.5 µg/mL (≈ 35.4 µM)
MIC (Staphylococcus aureus [11]): 12.5 µg/mL (≈ 35.4 µM)
MIC (Staphylococcus aureus [12]): 12.5 µg/mL (≈ 35.4 µM)
MIC (Staphylococcus aureus [13]): 12.5 µg/mL (≈ 35.4 µM)
MIC (Staphylococcus aureus [14]): 12.5 µg/mL (≈ 35.4 µM)
MIC (Staphylococcus aureus [15]): 12.5 µg/mL (≈ 35.4 µM)
MIC (Staphylococcus aureus [16]): 12.5 µg/mL (≈ 35.4 µM)
MIC (Staphylococcus aureus [17]): 12.5 µg/mL (≈ 35.4 µM)

Structure (SMILES): O=C(C1=N[C@H](c2c[nH]c3cc(Br)ccc23)CN1)c1c[nH]c2ccccc12
IC50 [18]: 16 nM

Structure (SMILES): c1ccc(Nc2nnc(Cc3c[nH]c4ccccc34)s2)cc1
MIC (Staphylococcus aureus [3]): 25 µg/mL (≈ 81.6 µM)

Structure (SMILES): CC1=C(C(=O)O)N2C(=O)[C@@H](NC(=O)[C@H](N)c3ccccc3)[C@H]2SC1 [CEPHALEXIN ANHYDROUS]
MIC (Staphylococcus aureus [3]): 72 µg/mL (≈ 207 µM)

Structure (SMILES): CC(C)(C)OC(=O)NCC(NC(=O)c1c[nH]c2ccc(Br)cc12)c1c[nH]c2ccc(Br)cc12 (centres undefined)
MIC (Staphylococcus aureus [19]): 2 µg/mL (≈ 3.47 µM)

Structure (SMILES): O=C(C1=N[C@H](c2c[nH]c3cc(Br)ccc23)CN1)c1c[nH]c2cc(O)ccc12
IC50 [18]: 16 nM

Structure (SMILES): O=C(c1ccc(F)cc1)C1C(c2ccc(Br)cc2)CNC12C(=O)Nc1ccccc12 (centres undefined)
MIC (Staphylococcus aureus [2]): 40 µg/mL (≈ 86 µM)

Structure (SMILES): Clc1ccc2nc(-c3c[nH]c4ccc(Br)cc34)ccc2c1
MIC (Staphylococcus aureus [3]): 0.62 µg/mL (≈ 1.73 µM)

Structure (SMILES): CC1(C)S[C@@H]2[C@H](NC(=O)[C@H](N)c3ccccc3)C(=O)N2[C@H]1C(=O)OCOC(=O)[C@@H]1N2C(=O)C[C@H]2S(=O)(=O)C1(C)C [SULTAMICILLIN]
MIC (Staphylococcus aureus [3]): 25 µg/mL (≈ 42 µM)

Structure (SMILES): Fc1cccc(Nc2nnc(Cc3c[nH]c4ccccc34)s2)c1
MIC (Staphylococcus aureus [3]): 25 µg/mL (≈ 77.1 µM)

Structure (SMILES): N=C(N)N/N=C/c1cn(S(=O)(=O)c2ccccc2)c2ccc(-c3ccc(OC(F)(F)F)cc3)cc12
MIC (Staphylococcus aureus [3]): 3.13 µg/mL (≈ 6.24 µM)

Structure (SMILES): N=C(N)N/N=C/c1cn(S(=O)(=O)c2ccccc2)c2ccc(-c3ccc(F)c(Cl)c3)cc12
MIC (Staphylococcus aureus [3]): 3.13 µg/mL (≈ 6.66 µM)

Structure (SMILES): CC(=O)/C(=C\c1cn(CC(=O)N2CCCCC2)c2ccccc12)n1c([N+](=O)[O-])cnc1C
MIC (Staphylococcus aureus [3]): 1 µg/mL (≈ 2.3 µM)

Structure (SMILES): CC(C)(C)n1cc(Br)c2c3c(-c4ccc(Cl)cc4)onc3ccc21
MIC (Staphylococcus aureus [3]): 4.3 µg/mL (≈ 10.7 µM)

Structure (SMILES): c1ccc2c(-c3c[nH]c4ccccc34)c3c(nc2c1)[nH]c1ccccc13
MIC (Staphylococcus aureus [3]): 1 µg/mL (≈ 3 µM)

Structure (SMILES): Clc1ccc(Nc2nnc(Cc3c[nH]c4ccccc34)s2)c(Cl)c1
MIC (Staphylococcus aureus [3]): 25 µg/mL (≈ 66.6 µM)

Structure (SMILES): Cc1ccc(C(=O)OC[C@H]2O[C@H](n3c(-c4cc5ccccc5[nH]4)c(CC(=O)N(CC(=O)O)Cc4ccccc4)c4ccccc43)CC2OC(=O)c2ccc(C)cc2)cc1 (some centres undefined)
MIC (Staphylococcus aureus [20]): 13 µg/mL (≈ 16.5 µM)
MIC (Staphylococcus aureus [21]): 13 µg/mL (≈ 16.5 µM)
MIC (Staphylococcus aureus [22]): 13 µg/mL (≈ 16.5 µM)
MIC (Staphylococcus aureus [23]): 13 µg/mL (≈ 16.5 µM)
MIC (Staphylococcus aureus [24]): 13 µg/mL (≈ 16.5 µM)
MIC (Staphylococcus aureus [25]): 13 µg/mL (≈ 16.5 µM)
MIC (Staphylococcus aureus [26]): 13 µg/mL (≈ 16.5 µM)

MIC (Staphylococcus aureus [1]): 5 µg/mL (≈ 12 µM)
Structure (SMILES): COc1ccc(C2C([N+](=O)[O-])C(c3ccccc3)NC23C(=O)Nc2ccccc23)cc1 (centres undefined)

Structure (SMILES): Clc1ccc(-n2nc(C3CCNCC3)cc2/C=C/c2c[nH]c3ccc(Cl)cc23)cc1
MIC (Staphylococcus aureus [3]): 1 µg/mL (≈ 2.29 µM)
